According to paper PMC12307812 (Nature Communications, 2025):

Legend:
[1] = biological target: T1, Recombinant Human TMPRSS2 (Homo sapiens, UniProt O15393); test: TMPRSS2 biochemical assay with pre-incubation of inhibitor and enzyme; conditions: for inhibition at 2.788 pM: concentration 0.00278767 nM; for inhibition at 8.363 pM: concentration 0.00836301 nM; for inhibition at 25.09 pM: concentration 0.025089 nM; for inhibition at 75.27 pM: concentration 0.0752671 nM; for inhibition at 0.000225801 µM: concentration 0.225801 nM; for inhibition at 0.000677404 µM: concentration 0.677404 nM; for inhibition at 0.00203221 µM: concentration 2.03221 nM; for inhibition at 0.00609663 µM: concentration 6.09663 nM; for inhibition at 0.0182899 µM: concentration 18.2899 nM; for inhibition at 0.0548697 µM: concentration 54.8697 nM; for inhibition at 0.164609 µM: concentration 164.609 nM; for inhibition at 0.493827 µM: concentration 493.827 nM; for inhibition at 1.48148 µM: concentration 1481.48 nM; for inhibition at 4.44444 µM: concentration 4444.44 nM; for inhibition at 13.3333 µM: concentration 13333.3 nM; for inhibition at 40 µM: concentration 40000 nM
T1 construct: human TMPRSS2 residues 106492, N-terminal 6x His-tag; 6x His-tag (N); purchased Cusabio CSB-YP023924HU; host or cells: yeast
Experimental: To that was dispensed TMPRSS2 (5 µl, 0.018 mg/ml) in assay buffer (50 mM Tris pH 8, 150 mM NaCl, 0.01% Tween20) using a BioRAPTR (Beckman Coulter) to give a total reaction volume of 5 µl. […] The final assay conditions are 10 µM peptide, 0.018 mg/ml TMPRSS2 in assay buffer (50 mM Tris-HCl, pH 8, 150 mM NaCl, 0.01% Tween20).
After incubation at room temperature for 1 h, fluorescence was measured. […] Raw plate reads for each titration point were normalized relative to a positive control containing no enzyme (0% activity, full inhibition) and a negative control containing DMSO-only wells (100% activity, basal activity). Data normalization was performed using GraphPad Prism (GraphPad Software, San Diego, CA).
We employed the curve fitting algorithm available in the SciPy package (version 1.10.1)[61] to derive the Hill slope and the IC50 value, along with their corresponding error estimates.
To model the relationship between the pre-incubation time and the IC50, we use the following equation inspired by the Morse potential:3 ft,a,D,te=D⋅1−exp−a⋅t−te^2 where t is the time, a is the width of the well, D is the IC50 at infinite time (depth of the well) and te is the time at which the IC50 reaches its minimum. Again, we made use of SciPy’s curve fitting method to obtain parameters a, D and te, with their respective error estimates.

[2] = tested on: pseudovirus bearing S protein of HCoV-229E; test: organism not typed; assay type: cell-based
[3] = tested on: pseudovirus bearing S protein of SARS-CoV-1; test: organism not typed; assay type: cell-based
[4] = Calu-3, read-out: mean inhibition

T1 sequence (O15393 106-492 limits assumed): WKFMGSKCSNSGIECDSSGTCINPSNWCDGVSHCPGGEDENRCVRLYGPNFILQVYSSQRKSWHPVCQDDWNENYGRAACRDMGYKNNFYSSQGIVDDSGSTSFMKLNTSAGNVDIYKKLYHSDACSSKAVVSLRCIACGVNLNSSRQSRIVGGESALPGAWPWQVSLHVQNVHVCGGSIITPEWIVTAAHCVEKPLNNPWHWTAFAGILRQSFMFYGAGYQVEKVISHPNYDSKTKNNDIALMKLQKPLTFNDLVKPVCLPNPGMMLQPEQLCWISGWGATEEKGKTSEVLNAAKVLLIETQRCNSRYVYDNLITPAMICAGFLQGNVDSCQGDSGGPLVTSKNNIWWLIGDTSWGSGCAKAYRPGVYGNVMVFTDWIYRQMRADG

Compound: CN(C)C(=O)COC(=O)Cc1ccc(OC(=O)c2ccc(NC(=N)N)cc2)cc1 [camostat]
- inhibition at 2.788 pM ([1]; pre-incubation 0): -8.21%
- inhibition at 8.363 pM ([1]; pre-incubation 0): -16.5%
- inhibition at 25.09 pM ([1]; pre-incubation 0): -12.1%
- inhibition at 75.27 pM ([1]; pre-incubation 0): 11.6%
- inhibition at 0.000225801 µM ([1]; pre-incubation 0): 44.8%
- inhibition at 0.000677404 µM ([1]; pre-incubation 0): 63.8%
- inhibition at 0.00203221 µM ([1]; pre-incubation 0): 78.4%
- inhibition at 0.00609663 µM ([1]; pre-incubation 0): 87.8%
- inhibition at 0.0182899 µM ([1]; pre-incubation 0): 93.9%
- inhibition at 0.0548697 µM ([1]; pre-incubation 0): 95.2%
- inhibition at 0.164609 µM ([1]; pre-incubation 0): 94.9%
- inhibition at 0.493827 µM ([1]; pre-incubation 0): 96.5%
- inhibition at 1.48148 µM ([1]; pre-incubation 0): 97.9%
- inhibition at 4.44444 µM ([1]; pre-incubation 0): 97.2%
- inhibition at 13.3333 µM ([1]; pre-incubation 0): 98.7%
- inhibition at 40 µM ([1]; pre-incubation 0): 98.9%
- inhibition at 2.788 pM ([1]; pre-incubation 1): 6.01%
- inhibition at 8.363 pM ([1]; pre-incubation 1): 2.49%
- inhibition at 25.09 pM ([1]; pre-incubation 1): 10%
- inhibition at 75.27 pM ([1]; pre-incubation 1): 58.4%
- inhibition at 0.000225801 µM ([1]; pre-incubation 1): 90.2%
- inhibition at 0.000677404 µM ([1]; pre-incubation 1): 93.6%
- inhibition at 0.00203221 µM ([1]; pre-incubation 1): 94.9%
- inhibition at 0.00609663 µM ([1]; pre-incubation 1): 95.1%
- inhibition at 0.0182899 µM ([1]; pre-incubation 1): 94.9%
- inhibition at 0.0548697 µM ([1]; pre-incubation 1): 96.1%
- inhibition at 0.164609 µM ([1]; pre-incubation 1): 96%
- inhibition at 0.493827 µM ([1]; pre-incubation 1): 95.8%
- inhibition at 1.48148 µM ([1]; pre-incubation 1): 97.1%
- inhibition at 4.44444 µM ([1]; pre-incubation 1): 97.4%
- inhibition at 13.3333 µM ([1]; pre-incubation 1): 98.2%
- inhibition at 40 µM ([1]; pre-incubation 1): 99.4%
- inhibition at 2.788 pM ([1]; pre-incubation 4): 8.38%
- inhibition at 8.363 pM ([1]; pre-incubation 4): 5.55%
- inhibition at 25.09 pM ([1]; pre-incubation 4): 35.8%
- inhibition at 75.27 pM ([1]; pre-incubation 4): 91%
- inhibition at 0.000225801 µM ([1]; pre-incubation 4): 96.5%
- inhibition at 0.000677404 µM ([1]; pre-incubation 4): 97.6%
- inhibition at 0.00203221 µM ([1]; pre-incubation 4): 97.9%
- inhibition at 0.00609663 µM ([1]; pre-incubation 4): 98.2%
- inhibition at 0.0182899 µM ([1]; pre-incubation 4): 98%
- inhibition at 0.0548697 µM ([1]; pre-incubation 4): 98.6%
- inhibition at 0.164609 µM ([1]; pre-incubation 4): 98.2%
- inhibition at 0.493827 µM ([1]; pre-incubation 4): 99.2%
- inhibition at 1.48148 µM ([1]; pre-incubation 4): 99.4%
- inhibition at 4.44444 µM ([1]; pre-incubation 4): 100%
- inhibition at 13.3333 µM ([1]; pre-incubation 4): 101%
- inhibition at 40 µM ([1]; pre-incubation 4): 102%
- inhibition at 2.788 pM ([1]; pre-incubation 8): 20.8%
- inhibition at 8.363 pM ([1]; pre-incubation 8): 10.7%
- inhibition at 25.09 pM ([1]; pre-incubation 8): 61.7%
- inhibition at 75.27 pM ([1]; pre-incubation 8): 104%
- inhibition at 0.000225801 µM ([1]; pre-incubation 8): 108%
- inhibition at 0.000677404 µM ([1]; pre-incubation 8): 110%
- inhibition at 0.00203221 µM ([1]; pre-incubation 8): 111%
- inhibition at 0.00609663 µM ([1]; pre-incubation 8): 112%
- inhibition at 0.0182899 µM ([1]; pre-incubation 8): 111%
- inhibition at 0.0548697 µM ([1]; pre-incubation 8): 112%
- inhibition at 0.164609 µM ([1]; pre-incubation 8): 113%
- inhibition at 0.493827 µM ([1]; pre-incubation 8): 113%
- inhibition at 1.48148 µM ([1]; pre-incubation 8): 114%
- inhibition at 4.44444 µM ([1]; pre-incubation 8): 115%
- inhibition at 13.3333 µM ([1]; pre-incubation 8): 114%
- inhibition at 40 µM ([1]; pre-incubation 8): 115%
- inhibition at 2.788 pM ([1]; pre-incubation 18): 24.4%
- inhibition at 8.363 pM ([1]; pre-incubation 18): 17.1%
- inhibition at 25.09 pM ([1]; pre-incubation 18): 57.1%
- inhibition at 75.27 pM ([1]; pre-incubation 18): 86.7%
- inhibition at 0.000225801 µM ([1]; pre-incubation 18): 91.7%
- inhibition at 0.000677404 µM ([1]; pre-incubation 18): 94.1%
- inhibition at 0.00203221 µM ([1]; pre-incubation 18): 95.7%
- inhibition at 0.00609663 µM ([1]; pre-incubation 18): 98.6%
- inhibition at 0.0182899 µM ([1]; pre-incubation 18): 99.3%
- inhibition at 0.0548697 µM ([1]; pre-incubation 18): 99.9%
- inhibition at 0.164609 µM ([1]; pre-incubation 18): 101%
- inhibition at 0.493827 µM ([1]; pre-incubation 18): 102%
- inhibition at 1.48148 µM ([1]; pre-incubation 18): 102%
- inhibition at 4.44444 µM ([1]; pre-incubation 18): 103%
- inhibition at 13.3333 µM ([1]; pre-incubation 18): 103%
- inhibition at 40 µM ([1]; pre-incubation 18): 104%
- inhibition at 2.788 pM ([1]; pre-incubation 24): 38.3%
- inhibition at 8.363 pM ([1]; pre-incubation 24): 38.8%
- inhibition at 25.09 pM ([1]; pre-incubation 24): 73.1%
- inhibition at 75.27 pM ([1]; pre-incubation 24): 100%
- inhibition at 0.000225801 µM ([1]; pre-incubation 24): 105%
- inhibition at 0.000677404 µM ([1]; pre-incubation 24): 107%
- inhibition at 0.00203221 µM ([1]; pre-incubation 24): 107%
- inhibition at 0.00609663 µM ([1]; pre-incubation 24): 108%
- inhibition at 0.0182899 µM ([1]; pre-incubation 24): 110%
- inhibition at 0.0548697 µM ([1]; pre-incubation 24): 110%
- inhibition at 0.164609 µM ([1]; pre-incubation 24): 111%
- inhibition at 0.493827 µM ([1]; pre-incubation 24): 111%
- inhibition at 1.48148 µM ([1]; pre-incubation 24): 112%
- inhibition at 4.44444 µM ([1]; pre-incubation 24): 112%
- inhibition at 13.3333 µM ([1]; pre-incubation 24): 112%
- inhibition at 40 µM ([1]; pre-incubation 24): 113%
- inhibition at 2.788 pM ([1]; pre-incubation 48): 4.55%
- inhibition at 8.363 pM ([1]; pre-incubation 48): -1.82%
- inhibition at 25.09 pM ([1]; pre-incubation 48): 28.4%
- inhibition at 75.27 pM ([1]; pre-incubation 48): 71.5%
- inhibition at 0.000225801 µM ([1]; pre-incubation 48): 83.3%
- inhibition at 0.000677404 µM ([1]; pre-incubation 48): 86.8%
- inhibition at 0.00203221 µM ([1]; pre-incubation 48): 88.2%
- inhibition at 0.00609663 µM ([1]; pre-incubation 48): 89.9%
- inhibition at 0.0182899 µM ([1]; pre-incubation 48): 90.6%
- inhibition at 0.0548697 µM ([1]; pre-incubation 48): 91.9%
- inhibition at 0.164609 µM ([1]; pre-incubation 48): 92.7%
- inhibition at 0.493827 µM ([1]; pre-incubation 48): 94.2%
- inhibition at 1.48148 µM ([1]; pre-incubation 48): 95.1%
- inhibition at 4.44444 µM ([1]; pre-incubation 48): 97%
- inhibition at 13.3333 µM ([1]; pre-incubation 48): 100%
- inhibition at 40 µM ([1]; pre-incubation 48): 107%
- IC50 ([2]; Calu-3, read-out: IC50 estimate, pseudovirus cell entry 229E-S): 2010 ± 177 nM
- inhibition at 0.00025 µM [2, 4]: 1.18%
- inhibition at 0.0025 µM [2, 4]: 7.64%
- inhibition at 0.025 µM [2, 4]: 11.6%
- inhibition at 0.25 µM [2, 4]: 30.5%
- inhibition at 2.5 µM [2, 4]: 52.3%
- inhibition at 25 µM [2, 4]: 73.8%
- IC50 ([3]; Calu-3, read-out: IC50 estimate, pseudovirus cell entry SARS-1-S): 193 ± 70.4 nM
- inhibition at 0.00025 µM ([3]; Calu-3, concentration 0.25 nM): 3.15%
- inhibition at 0.0025 µM ([3]; Calu-3, concentration 2.5 nM): 5.85%
- inhibition at 0.025 µM ([3]; Calu-3, concentration 25 nM): 19.9%
- inhibition at 0.25 µM ([3]; Calu-3, concentration 250 nM): 63.5%
- inhibition at 2.5 µM ([3]; Calu-3, concentration 2500 nM): 76.2%
- inhibition at 25 µM ([3]; Calu-3, concentration 25000 nM): 83.2%
